The values below come from patent US11512053B2, “Arginine methyltransferase inhibitors and uses thereof” (priority 2013, dated 2022).

Experiment [1] deals with mono-methyl arginine in RKO cells. The experiment is described as follows: RKO Methylation Assay, In Cell Western (ICW) for detection of mono-methyl arginine and DNA content. The class given is cell-based. In a few lines:
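RKO cells were treated with compound for 72 hours at 37 °C, methanol-fixed and stained overnight at 4 °C with anti-mono-methyl arginine (1:200), with DRAQ5 for DNA. Odyssey 800/700 nm intensity ratio was normalized to DMSO and 20 μM reference-compound controls. EC30 from triplicate nine-point curves.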

In experiment [2] the target is full-length human PRMT8 isoform 1 (Homo sapiens, UniProt Q9NR22). The experiment in a line: PRMT8 Biochemical Assay (3H-SAM Flashplate, peptide substrate). As to conditions: read-out: Biochemical IC50 PRMT8. In a few lines:
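Scintillation Flashplate capture of biotinylated histone H4 (31-45) peptide (150 nM) methylated by 1.5 nM PRMT8 using 3H-SAM (50 nM) with unlabelled SAM (550 nM); enzyme and compound preincubated 30 min, room temperature, in Bicine pH 7.6 buffer with TCEP, BSG, Tween 20 and 2% DMSO. Stopped with excess cold SAM (400 uM); IC50 from % inhibition, min control 1 mM SAH.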

Setting [3] is: Homo sapiens, RKO, 72 h, RKO cells, 72 hours compound incubation, mono-methyl arginine signal normalised to DNA content (DRAQ5), percent activation vs 20 μM reference compound, read-out: In Cell Western EC30.
Where [4] appears, read: Homo sapiens, RKO, 72 h, RKO cells, 72 hours incubation, mono-methyl arginine signal normalised to DNA content, single experiment or average of multiple experiments, read-out: In Cell Western EC30.
The mark [5] stands for this setting: single experiment or average of multiple experiments.
Where [6] appears, read: Homo sapiens, RKO, 72 h, read-out: In Cell Western EC30, RKO cells, 72 hours compound incubation, mono-methyl arginine signal normalised to DNA content (DRAQ5), percent activation vs 20 μM reference compound.
Setting [7] is: Homo sapiens, RKO, 72 h, read-out: In Cell Western EC30, RKO cells, 72 hours incubation, mono-methyl arginine signal normalised to DNA content, single experiment or average of multiple experiments.

SMILES strings stand for the structures. Where a name gives a salt, the structure may show the parent alone. Read-outs that look alike come from different tables or passages of the source. Bounds are passed on as bounds.

Chain of full-length human PRMT8 isoform 1 (Q9NR22 whole entry, canonical isoform): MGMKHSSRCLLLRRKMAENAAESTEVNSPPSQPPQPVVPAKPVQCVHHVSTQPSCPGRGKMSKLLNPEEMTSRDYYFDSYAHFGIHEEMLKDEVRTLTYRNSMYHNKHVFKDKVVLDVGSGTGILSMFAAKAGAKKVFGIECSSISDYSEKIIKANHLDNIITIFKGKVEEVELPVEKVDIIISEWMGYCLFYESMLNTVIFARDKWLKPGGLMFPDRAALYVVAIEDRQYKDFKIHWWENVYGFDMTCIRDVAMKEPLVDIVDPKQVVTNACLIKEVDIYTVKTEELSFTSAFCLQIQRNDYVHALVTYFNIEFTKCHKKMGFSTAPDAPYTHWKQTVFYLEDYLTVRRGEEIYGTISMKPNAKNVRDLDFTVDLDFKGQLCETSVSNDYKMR

By EC30 is commonly meant the concentration at which the effect reaches the 30% level. What is called IC50 is the midpoint of a concentration-inhibition curve. With `CNCCN(C)Cc1c[nH]nc1[C@H]1CC[C@H](C(=O)N(CCCOC)CCC(C)C)CC1` [Compound 213], the EC30 is less than 3000 nM in experiment [1] (setting [3]) and 433 nM in experiment [1] (setting [4]). In addition, the 50% inhibitory concentration (IC50) in experiment [2] was 101 to 1000 nM; in experiment [2] (setting [5]), 165 nM.
For `CNCCN(C)Cc1c[nH]nc1[C@H]1CC[C@@H](C(=O)N(CCCOC)CCC(C)C)CC1` [Compound 214], in that order: less than 3000 nM, 95.8 nM, less than 100 nM and 27.4 nM.
Regarding `CNCCN(C)Cc1c[nH]nc1[C@H]1CC[C@@H](C(=O)N(C)CC(C)C)CC1` [Compound 215], the figures for the 30% effect concentration (EC30) in experiment [1] (setting [3]) and in experiment [1] (setting [4]) were less than 3000 nM and 164 nM, respectively. Moreover, the IC50 was less than 100 nM in experiment [2] and 23 nM in experiment [2] (setting [5]).
Regarding `CNCCN(C)Cc1c[nH]nc1C1CCC(F)(F)CC1` [Compound 216], the results for the 30% effect concentration (EC30) in experiment [1] (setting [3]) and in experiment [1] (setting [4]) were less than 3000 nM and 111 nM, respectively. Besides, the values for the IC50 in experiment [2] and in experiment [2] (setting [5]) were less than 100 nM and 17.8 nM, respectively.
`CNCCN(C)Cc1c[nH]nc1[C@H]1CC[C@@H](O)CC1` [Compound 217, 4-[4-([methyl[2-(methylamino)ethyl]amino]methyl)-1H-pyrazol-3-yl]cyclohexan-1-ol trifluoroacetate]: the EC30 in experiment [1] (setting [6]) is less than 3000 nM; in experiment [1] (setting [7]), 111 nM. The figures for the half-inhibitory concentration (IC50) in experiment [2] and in experiment [2] (setting [5]) were less than 100 nM and 59.5 nM, respectively.
Regarding `CNCCN(C)Cc1c[nH]nc1[C@H]1CC[C@H](N(CCOc2ccccc2)C(=O)CCOC)CC1` [Compound 219], the concentration for an effect of 30% (EC30) in experiment [1] (setting [3]) is less than 3000 nM; in experiment [1] (setting [4]), 294 nM. Besides, the results for the IC50 in experiment [2] and in experiment [2] (setting [5]) were less than 100 nM and 15 nM, respectively.
Turning to `CCC(=O)N(CCOc1ccccc1)[C@H]1CC[C@@H](c2n[nH]cc2CN(C)CCNC)CC1` [Compound 220], the 30% effect concentration (EC30) is less than 3000 nM in experiment [1] (setting [3]) and 219 nM in experiment [1] (setting [4]). The IC50 was less than 100 nM in experiment [2] and 12.9 nM in experiment [2] (setting [5]).
Taken in the same sequence, the figures for `CCC(=O)N(CCOc1ccccc1)[C@H]1CC[C@H](c2n[nH]cc2CN(C)CCNC)CC1` [Compound 221] were less than 3000 nM, 490 nM, less than 100 nM and 15.4 nM.
Taken in the same sequence, the figures for `CNCCN(C)Cc1c[nH]nc1[C@H]1CC[C@@H](N(CCOc2ccccc2)C(=O)CC(C)C)CC1` [Compound 222] were less than 3000 nM, 2610 nM, less than 100 nM and 90 nM.
Take `CNCCN(C)Cc1c[nH]nc1[C@H]1CC[C@H](N(CCOc2ccccc2)C(=O)CC(C)C)CC1` [Compound 223]: the figures for the EC30 in experiment [1] (setting [3]) and in experiment [1] (setting [4]) were less than 3000 nM and 275 nM, respectively. In addition, the concentration for half-maximal inhibition (IC50) in experiment [2] was less than 100 nM; in experiment [2] (setting [5]), 8.65 nM.
Regarding `CCN(C(=O)CCOc1ccccc1)[C@H]1CC[C@@H](c2n[nH]cc2CN(C)CCNC)CC1` [Compound 224], the EC30 was less than 3000 nM in experiment [1] (setting [3]) and 84.7 nM in experiment [1] (setting [4]). The IC50 in experiment [2] was less than 100 nM; in experiment [2] (setting [5]), 10.2 nM.
Regarding `CCN(C(=O)CCOc1ccccc1)[C@H]1CC[C@H](c2n[nH]cc2CN(C)CCNC)CC1` [Compound 225], the EC30 was less than 3000 nM in experiment [1] (setting [3]) and 649 nM in experiment [1] (setting [4]). The IC50 was less than 100 nM in experiment [2] and 13.9 nM in experiment [2] (setting [5]).
Taken in the same sequence, the figures for `CNCCN(C)Cc1c[nH]nc1[C@H]1CC[C@H](C(=O)N(C)CC(C)C)CC1` [Compound 226] were less than 3000 nM, 1530 nM, less than 100 nM and 57.6 nM.
`CNCCN(C)Cc1c[nH]nc1[C@H]1CC[C@H](O)CC1` [Compound 227, 4-[4-([methyl[2-(methylamino)ethyl]amino]methyl)-1H-pyrazol-3-yl]cyclohexan-1-ol trifluoroacetate]: the EC30 in experiment [1] (setting [6]) is less than 3000 nM; in experiment [1] (setting [7]), 1530 nM. The concentration for half-maximal inhibition (IC50) in experiment [2] is less than 100 nM; in experiment [2] (setting [5]) it was 35.8 nM.
As for `CNCCN(C)Cc1c[nH]nc1[C@H]1CC[C@H](N(CCOc2ccccc2)C(=O)CCCOC)CC1` [Compound 229], the concentration for an effect of 30% (EC30) is less than 3000 nM in experiment [1] (setting [3]) and 689 nM in experiment [1] (setting [4]). Besides, the half-maximal inhibitory concentration (IC50) in experiment [2] was less than 100 nM; in experiment [2] (setting [5]), 16 nM.
For `CNCCN(C)Cc1c[nH]nc1[C@H]1CC[C@H](N(CCOC)C(=O)CCOc2ccccc2)CC1` [Compound 230], in that order: less than 3000 nM, 1320 nM, less than 100 nM and 25.7 nM.
For `CNCCN(C)Cc1c[nH]nc1[C@H]1CC[C@@H](N(CC(C)C)C(=O)CCOc2ccccc2)CC1` [Compound 231], in that order: less than 3000 nM, 96.7 nM, less than 100 nM and 9.32 nM.
`CNCCN(C)Cc1c[nH]nc1[C@H]1CC[C@H](N(CC(C)C)C(=O)CCOc2ccccc2)CC1` [Compound 232]: the values for the EC30 in experiment [1] (setting [3]) and in experiment [1] (setting [4]) were less than 3000 nM and 957 nM, respectively. The IC50 in experiment [2] is less than 100 nM; in experiment [2] (setting [5]) it was 21 nM.
Taken in the same sequence, the figures for `CNCCN(C)Cc1c[nH]nc1[C@H]1CC[C@@H](N(CC(C)C)C(=O)CCOC)CC1` [Compound 233] were less than 3000 nM, 1060 nM, less than 100 nM and 42.7 nM.
Taken in the same sequence, the figures for `CNCCN(C)Cc1c[nH]nc1[C@H]1CC[C@H](N(CC(C)C)C(=O)CCOC)CC1` [Compound 234] were less than 3000 nM, 1060 nM, less than 100 nM and 42.8 nM.
For `CNCCN(C)Cc1c[nH]nc1[C@H]1CC[C@@H](N(CCC(C)C)C(=O)CCOC)CC1` [Compound 235], in that order: less than 3000 nM, 813 nM, less than 100 nM and 44 nM.
As for `CNCCN(C)Cc1c[nH]nc1[C@H]1CC[C@H](N(CCC(C)C)C(=O)CCOC)CC1` [Compound 236], the results for the EC30 in experiment [1] (setting [3]) and in experiment [1] (setting [4]) were less than 3000 nM and 813 nM, respectively. The IC50 in experiment [2] is less than 100 nM; in experiment [2] (setting [5]), 57.8 nM.
Take `CNCCN(C)Cc1c[nH]nc1[C@H]1CC[C@@H](N(CCC(C)C)C(=O)CCCOC)CC1` [Compound 237]: the EC30 was less than 3000 nM in experiment [1] (setting [3]) and 1440 nM in experiment [1] (setting [4]). Further, the half-maximal inhibitory concentration (IC50) is less than 100 nM in experiment [2] and 83.3 nM in experiment [2] (setting [5]).
On to `CNCCN(C)Cc1c[nH]nc1[C@H]1CC[C@H](N(CCC(C)C)C(=O)CCCOC)CC1` [Compound 238], for which the concentration for an effect of 30% (EC30) is less than 3000 nM in experiment [1] (setting [3]) and 2150 nM in experiment [1] (setting [4]). Moreover, the IC50 in experiment [2] was less than 100 nM; in experiment [2] (setting [5]), 80.1 nM.
In the case of `CCN(C(=O)CC(C)C)[C@H]1CC[C@H](c2n[nH]cc2CN(C)CCNC)CC1` [Compound 239], the figures for the EC30 in experiment [1] (setting [3]) and in experiment [1] (setting [4]) were less than 3000 nM and 2150 nM, respectively. Also, the 50% inhibitory concentration (IC50) is less than 100 nM in experiment [2] and 13.2 nM in experiment [2] (setting [5]).
For `CCN(C(=O)CC(C)C)[C@H]1CC[C@@H](c2n[nH]cc2CN(C)CCNC)CC1` [Compound 240], the 30% effect concentration (EC30) in experiment [1] (setting [3]) was less than 3000 nM; in experiment [1] (setting [4]) it was 1180 nM. The IC50 in experiment [2] is less than 100 nM; in experiment [2] (setting [5]), 10.9 nM.
Turning to `CNCCN(C)Cc1c[nH]nc1[C@H]1CC[C@H](N(CCCOC)C(=O)CC(C)C)CC1` [Compound 241], the 30% effect concentration (EC30) was less than 3000 nM in experiment [1] (setting [3]) and 1180 nM in experiment [1] (setting [4]). Besides, the IC50 was less than 100 nM in experiment [2] and 48.9 nM in experiment [2] (setting [5]).
Take `CNCCN(C)Cc1c[nH]nc1[C@H]1CC[C@@H](N(CCCOC)C(=O)CCC(C)C)CC1` [Compound 244]: the values for the EC30 in experiment [1] (setting [3]) and in experiment [1] (setting [4]) were less than 3000 nM and 2530 nM, respectively. The 50% inhibitory concentration (IC50) in experiment [2] is 101 to 1000 nM; in experiment [2] (setting [5]) it was 113 nM.
For `CNCCN(C)Cc1c[nH]nc1[C@H]1CC[C@@H](N(CCCOC)C(=O)CCOc2ccccc2)CC1` [Compound 246], in that order: less than 3000 nM, 79.9 nM, less than 100 nM and 23.8 nM.
For `CNCCN(C)Cc1c[nH]nc1[C@H]1CC[C@H](N(CCCOC)C(=O)CCOc2ccccc2)CC1` [Compound 247], in that order: less than 3000 nM, 698 nM, less than 100 nM and 16.4 nM.
Taken in the same sequence, the figures for `CNCCN(C)Cc1c[nH]nc1[C@H]1CC[C@H](N(CC(C)C)C(=O)CCCOC)CC1` [Compound 248] were less than 3000 nM, 1310 nM, less than 100 nM and 28.2 nM.
Regarding `CNCCN(C)Cc1c[nH]nc1[C@H]1CC[C@H](N(CC(C)C)C(=O)CCCOC)CC1` [Compound 249], the “In Cell Western EC30” value in experiment [1] (RKO cells, 72 hours compound incubation, mono-methyl arginine signal normalised to DNA content (DRAQ5), percent activation vs 20 μM reference compound) was “A (“A” indicates an EC30 ≤ 3.00 μM)”. Moreover, the EC30 in experiment [1] (RKO cells, 72 hours incubation, mono-methyl arginine signal normalised to DNA content, single experiment or average of multiple experiments, read-out: In Cell Western EC30) is 658.5 nM. Also, the figures for the IC50 in experiment [2] and in experiment [2] (setting [5]) were less than 100 nM and 84.5 nM, respectively.
